Laboratory results published in patent US12544374B2, “AZA-quinoline compounds and uses thereof” (Novartis AG, priority 2019, dated 2026).

Tests used:
EZH2 = EZH2 (Homo sapiens (Human), UniProt Q15910); assay: ELISA (H3K27 methylation) assay in G401 cell; type: cell-based; settings: (b) ELISA Qualified assay, 48 h
Procedure: Representative compounds of the invention were serially and separately diluted 3-fold in DO to obtain a total of eight or twelve concentrations. Then the compounds were added to G401 cell cultured in 384-well plate at 1:500 dilution to obtain the highest concentration of 20 μM. The cells were further cultured for 48 h before ELISA procedure.
ELISA protocol: Cell lysates were transferred to the wells of a 384-well plate and the final volume was adjusted to 50 μL per well with PBS. The plate was sealed, centrifuged at 2,000 rpm for 2 min and incubated at 4° C. for about 16 h. The plate was washed with TBST buffer (1×TBS (10×TBS: 24.2 g Tris (Sigma, T6066), 80 g NaCl (Sigma, S3014) to 1 L of water and adjust pH to 7.6 with HCl) with 0.1% Tween-20). Blocking buffer (TBST, 5% BSA; 50 μL per well) was added and the plate was incubated for 1 h at rt. The blocking buffer was removed and primary antibody was added (30 μL per well). […] The primary antibody was incubated in the plate at rt for 1 h. The wells were washed with TBST and incubated with secondary antibody for 1 h at rt.
After 1 h of incubation at rt, the wells were washed with TBST. […] The signal was read using a PerkinElmer Envision Reader. The H3K27 methylation readouts were normalized using H3 signal and then percentage inhibition was calculated against the samples treated with DO. The data were fit to a dose response curve using the program Helios to get the IC50 values of the test compound.

[1] = target: wild type PRC2 (wtPRC2) complex (Homo sapiens (Human), UniProt Q15910); assay: EZH2 LC-MS assay (LC-Qualified); type: biochemical; settings: (a) LC-Qualified assay
Procedure: Representative compounds of the invention were serially and separately diluted 3-fold in DMSO to obtain twelve concentrations. […] Solutions (6 μL) of 80 nM wild type PRC2 (wtPRC2) complex and 60 μM SAM in reaction buffer (20 mM Tris, pH 8.0, 0.1% BSA, 0.01% Triton, 0.5 mM DTT) were added to the wells that were then incubated with the test compound for 20 min. A 6 μL solution of 3 μM of the substrate peptide H3K27me1 (histone H3[21-44]-K27me1-biotin) and 6 μM regulatory peptide H3K27me3 (histone H3[21-44]-K27me3) in reaction buffer was added to initiate each reaction. […] The data were fit to a dose response equation using the program Helios to get the IC50 values of the test compound.

Sequence of EZH2 (Q15910 whole entry): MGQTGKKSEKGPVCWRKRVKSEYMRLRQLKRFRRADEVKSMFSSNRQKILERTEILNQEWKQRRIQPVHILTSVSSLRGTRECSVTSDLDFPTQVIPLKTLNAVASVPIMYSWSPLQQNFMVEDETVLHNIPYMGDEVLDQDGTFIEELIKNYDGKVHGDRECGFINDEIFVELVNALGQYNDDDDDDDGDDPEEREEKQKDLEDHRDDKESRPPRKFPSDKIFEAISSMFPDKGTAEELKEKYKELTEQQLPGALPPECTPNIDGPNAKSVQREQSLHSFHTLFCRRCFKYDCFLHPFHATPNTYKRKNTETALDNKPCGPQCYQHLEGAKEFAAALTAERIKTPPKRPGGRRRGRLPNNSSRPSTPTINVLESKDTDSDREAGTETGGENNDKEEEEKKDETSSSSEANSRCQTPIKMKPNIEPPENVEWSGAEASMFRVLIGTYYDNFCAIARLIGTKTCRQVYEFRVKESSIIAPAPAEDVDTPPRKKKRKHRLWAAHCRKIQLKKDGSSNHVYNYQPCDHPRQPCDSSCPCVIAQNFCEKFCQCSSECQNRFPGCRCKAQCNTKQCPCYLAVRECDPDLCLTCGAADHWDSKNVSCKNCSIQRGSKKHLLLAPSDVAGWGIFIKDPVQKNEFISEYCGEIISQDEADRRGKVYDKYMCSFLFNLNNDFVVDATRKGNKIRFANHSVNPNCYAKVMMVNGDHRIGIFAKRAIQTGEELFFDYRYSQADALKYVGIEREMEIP
Sequence of EZH2 (Q15022 whole entry partner): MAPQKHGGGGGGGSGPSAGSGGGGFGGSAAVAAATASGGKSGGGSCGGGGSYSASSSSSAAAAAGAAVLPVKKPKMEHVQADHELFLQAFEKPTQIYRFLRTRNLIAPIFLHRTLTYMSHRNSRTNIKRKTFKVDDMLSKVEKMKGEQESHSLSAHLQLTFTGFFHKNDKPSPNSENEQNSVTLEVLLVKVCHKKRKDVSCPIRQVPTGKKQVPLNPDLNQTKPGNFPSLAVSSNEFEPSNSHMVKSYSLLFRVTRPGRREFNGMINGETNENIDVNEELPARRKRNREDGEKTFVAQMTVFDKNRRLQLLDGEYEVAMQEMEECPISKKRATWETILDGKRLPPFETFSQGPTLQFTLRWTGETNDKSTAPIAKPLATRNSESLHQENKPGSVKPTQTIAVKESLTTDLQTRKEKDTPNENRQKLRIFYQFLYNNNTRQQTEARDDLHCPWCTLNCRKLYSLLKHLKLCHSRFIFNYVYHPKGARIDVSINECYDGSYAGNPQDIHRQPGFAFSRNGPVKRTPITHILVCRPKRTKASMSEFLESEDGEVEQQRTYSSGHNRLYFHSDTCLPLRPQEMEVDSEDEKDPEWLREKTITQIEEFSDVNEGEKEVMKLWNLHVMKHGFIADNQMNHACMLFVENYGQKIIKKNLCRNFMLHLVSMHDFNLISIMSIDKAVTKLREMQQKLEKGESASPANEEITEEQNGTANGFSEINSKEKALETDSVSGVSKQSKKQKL
Sequence of EZH2 (O75530 whole entry partner): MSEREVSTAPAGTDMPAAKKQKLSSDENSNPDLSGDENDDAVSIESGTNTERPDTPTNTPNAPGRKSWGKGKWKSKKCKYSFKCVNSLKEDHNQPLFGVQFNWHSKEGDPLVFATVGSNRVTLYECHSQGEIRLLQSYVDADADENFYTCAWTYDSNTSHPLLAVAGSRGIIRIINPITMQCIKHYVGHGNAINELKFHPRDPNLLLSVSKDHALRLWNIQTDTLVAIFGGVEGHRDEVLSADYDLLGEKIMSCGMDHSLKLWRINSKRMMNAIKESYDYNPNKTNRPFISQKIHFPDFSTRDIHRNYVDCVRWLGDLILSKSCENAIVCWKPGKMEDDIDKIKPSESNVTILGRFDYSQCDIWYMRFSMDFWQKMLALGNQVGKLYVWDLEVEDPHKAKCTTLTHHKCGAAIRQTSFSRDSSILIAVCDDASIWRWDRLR
Sequence of EZH2 (Q09028 whole entry partner): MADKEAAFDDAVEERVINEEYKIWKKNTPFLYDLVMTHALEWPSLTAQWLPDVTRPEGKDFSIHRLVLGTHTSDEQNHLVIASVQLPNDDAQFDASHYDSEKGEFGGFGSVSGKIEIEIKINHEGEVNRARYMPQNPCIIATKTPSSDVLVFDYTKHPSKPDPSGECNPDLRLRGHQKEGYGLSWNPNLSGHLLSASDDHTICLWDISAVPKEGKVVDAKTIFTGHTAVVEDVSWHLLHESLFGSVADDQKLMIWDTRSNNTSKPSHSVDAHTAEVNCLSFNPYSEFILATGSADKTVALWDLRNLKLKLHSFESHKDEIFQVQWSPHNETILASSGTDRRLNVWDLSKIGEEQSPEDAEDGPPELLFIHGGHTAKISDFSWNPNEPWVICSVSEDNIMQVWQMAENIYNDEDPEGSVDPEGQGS
Sequence of wild type PRC2 (wtPRC2) complex (Q15910 whole entry): as the sequence (Q15910 whole entry) above
Sequence of wild type PRC2 (wtPRC2) complex (Q15022 whole entry partner): as the sequence (Q15022 whole entry partner) above
Sequence of wild type PRC2 (wtPRC2) complex (O75530 whole entry partner): as the sequence (O75530 whole entry partner) above
Sequence of wild type PRC2 (wtPRC2) complex (Q09028 whole entry partner): as the sequence (Q09028 whole entry partner) above
Sequence of wild type PRC2 (wtPRC2) complex (Q6ZN18 whole entry partner): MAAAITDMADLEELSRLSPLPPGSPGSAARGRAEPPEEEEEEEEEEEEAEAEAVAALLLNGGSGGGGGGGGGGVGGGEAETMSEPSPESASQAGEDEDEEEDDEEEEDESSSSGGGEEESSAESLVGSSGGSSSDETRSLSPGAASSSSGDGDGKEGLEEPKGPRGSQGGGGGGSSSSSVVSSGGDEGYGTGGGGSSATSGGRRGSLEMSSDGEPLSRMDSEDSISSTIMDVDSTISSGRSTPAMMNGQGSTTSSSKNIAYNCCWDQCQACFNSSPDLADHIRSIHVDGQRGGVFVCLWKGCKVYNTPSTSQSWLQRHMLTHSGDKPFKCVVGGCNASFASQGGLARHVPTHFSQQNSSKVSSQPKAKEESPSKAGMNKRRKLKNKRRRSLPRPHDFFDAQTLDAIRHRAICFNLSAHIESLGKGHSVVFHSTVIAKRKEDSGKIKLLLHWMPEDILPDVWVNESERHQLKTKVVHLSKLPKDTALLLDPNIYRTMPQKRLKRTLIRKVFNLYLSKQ

| Compound | IC50 (EZH2) [µM] | IC50 [1] [µM] |
| --- | --- | --- |
| 2-methoxyethyl (2-((((1,4-trans)-4-((8-chloro-1,7-naphthyridin-2-yl)amino)cyclohexyl)methyl)amino)pyrimidin-5-yl)carbamate [Compound C16] | 0.027 | 0.015 |
| CC(C(=O)N(C)C1COC1)c1cnc(NC[C@H]2CC[C@H](Nc3ccc4ccnc(Cl)c4n3)CC2)nc1 (mixture of isomers) [Compound C55, 2-(2-((((1,4-trans)-4-((8-chloro-1,7-naphthyridin-2-yl)amino)cyclohexyl)methyl)amino)pyrimidin-5-yl)-N-methyl-N-(oxetan-3-yl)propanamide] | 0.002 | 0.054 |
| CC(C(=O)N1CC(O)C1)c1cnc(NC[C@H]2CC[C@H](Nc3ccc4ccnc(Cl)c4n3)CC2)nc1 (mixture of isomers) [Compound C69, 2-(2-((((1,4-trans)-4-((8-chloro-1,7-naphthyridin-2-yl)amino)cyclohexyl)methyl)amino)pyrimidin-5-yl)-1-(3-hydroxyazetidin-1-yl)propan-1-one] | 0.136 | 0.035 |
| COc1nccc2ccc(N[C@H]3CC[C@H](CNc4ncc(NC(=O)C5CNC5)cn4)CC3)nc12 [Compound C2, N-(2-((((1,4-trans)-4-((8-methoxy-1,7-naphthyridin-2-yl)amino)cyclohexyl)methyl)amino)pyrimidin-5-yl)azetidine-3-carboxamide] | 0.783 | 0.087 |
| COc1nccc2ccc(N[C@H]3CC[C@H](CNc4ncc(NC(=O)C5CN(C)C5)cn4)CC3)nc12 [Compound C3, N-(2-((((1,4-trans)-4-((8-methoxy-1,7-naphthyridin-2-yl)amino)cyclohexyl)methyl)amino)pyrimidin-5-yl)-1-methylazetidine-3-carboxamide] | 0.025 | 0.054 |
| COc1nccc2ccc(N[C@H]3CC[C@H](CNc4ncc(C#N)cn4)CC3)nc12 [Compound C4, 2-((((1,4-trans)-4-((8-methoxy-1,7-naphthyridin-2-yl)amino)cyclohexyl)methyl)amino)pyrimidine-5-carbonitrile] | 0.031 | 0.046 |
| COc1nccc2ccc(N[C@H]3CC[C@H](CNc4ncc(C(N)=O)cn4)CC3)nc12 [Compound C5, 2-((((1,4-trans)-4-((8-methoxy-1,7-naphthyridin-2-yl)amino)cyclohexyl)methyl)amino)pyrimidine-5-carboxamide] | 0.062 | 0.063 |
| COc1nccc2ccc(N[C@H]3CC[C@H](CNc4ncc(NC(=O)CO)cn4)CC3)nc12 [Compound C7, 2-hydroxy-N-(2-((((1,4-trans)-4-((8-methoxy-1,7-naphthyridin-2-yl)amino)cyclohexyl)methyl)amino)pyrimidin-5-yl)acetamide] | 0.131 | 0.111 |
| COc1nccc2ccc(N[C@H]3CC[C@H](CNc4ncc(C(=O)NCC(C)O)cn4)CC3)nc12 (stereo partly drawn) [Compound C9, N-(2-hydroxypropyl)-2-((((1,4-trans)-4-((8-methoxy-1,7-naphthyridin-2-yl)amino)cyclohexyl)methyl)amino)pyrimidine-5-carboxamide] | 0.061 | 0.105 |
| COc1nccc2ccc(N[C@H]3CC[C@H](CNc4ncc(C(=O)N5CCOCC5)cn4)CC3)nc12 [Compound C10, (2-((((1,4-trans)-4-((8-methoxy-1,7-naphthyridin-2-yl)amino)cyclohexyl)methyl)amino)pyrimidin-5-yl)(morpholino)methanone] | 0.191 | 0.194 |
| COc1nccc2ccc(N[C@H]3CC[C@H](CNc4ncc(C(=O)N5CCN(C)CC5)cn4)CC3)nc12 [Compound C11, (2-((((1,4-trans)-4-((8-methoxy-1,7-naphthyridin-2-yl)amino)cyclohexyl)methyl)amino)pyrimidin-5-yl)(4-methylpiperazin-1-yl)methanone] | 0.029 | 0.12 |
| COc1nccc2ccc(N[C@H]3CC[C@H](CNc4ncc(-c5ncn[nH]5)cn4)CC3)nc12 [Compound C12, N-((1,4-trans)-4-(((5-(1H-1,2,4-triazol-5-yl)pyrimidin-2-yl)amino)methyl)cyclohexyl)-8-methoxy-1,7-naphthyridin-2-amine] | 0.052 | 0.075 |
| COc1nccc2ccc(N[C@H]3CC[C@H](CNc4ncc(CC(=O)NC5COC5)cn4)CC3)nc12 [Compound C13, 2-(2-((((1,4-trans)-4-((8-methoxy-1,7-naphthyridin-2-yl)amino)cyclohexyl)methyl)amino)pyrimidin-5-yl)-N-(oxetan-3-yl)acetamide] | 0.013 | 0.042 |
| Nc1cnc(NC[C@H]2CC[C@H](Nc3ccc4ccnc(Cl)c4n3)CC2)nc1 [Compound C14, N^2-(((1,4-trans)-4-((8-chloro-1,7-naphthyridin-2-yl)amino)cyclohexyl)methyl)pyrimidine-2,5-diamine] | 0.056 | 0.116 |
| O=C(Nc1cnc(NC[C@H]2CC[C@H](Nc3ccc4ccnc(Cl)c4n3)CC2)nc1)OCCO [Compound C17, 2-hydroxyethyl (2-((((1,4-trans)-4-((8-chloro-1,7-naphthyridin-2-yl)amino)cyclohexyl)methyl)amino)pyrimidin-5-yl)carbamate] | 0.01 | 0.088 |
| O=C(Nc1cnc(NC[C@H]2CC[C@H](Nc3ccc4ccnc(Cl)c4n3)CC2)nc1)OCC1COC1 [Compound C18, Oxetan-3-ylmethyl (2-((((1,4-trans)-4-((8-chloro-1,7-naphthyridin-2-yl)amino)cyclohexyl)methyl)amino)pyrimidin-5-yl)carbamate] | 0.039 | 0.028 |
| O=C(CO)Nc1cnc(NC[C@H]2CC[C@H](Nc3ccc4ccnc(Cl)c4n3)CC2)nc1 [Compound C19, N-(2-((((1,4-trans)-4-((8-chloro-1,7-naphthyridin-2-yl)amino)cyclohexyl)methyl)amino)pyrimidin-5-yl)-2-hydroxyacetamide] | 0.069 | – |
| O=C(CCC(=O)N1CCOCC1)Nc1cnc(NC[C@H]2CC[C@H](Nc3ccc4ccnc(Cl)c4n3)CC2)nc1 [Compound C20, N-(2-((((1,4-trans)-4-((8-chloro-1,7-naphthyridin-2-yl)amino)cyclohexyl)methyl)amino)pyrimidin-5-yl)-4-morpholino-4-oxobutanamide] | 0.127 | 0.068 |
| N#Cc1cnc(NC[C@H]2CC[C@H](Nc3ccc4ccnc(Cl)c4n3)CC2)nc1 [Compound C21, 2-((((1,4-trans)-4-((8-chloro-1,7-naphthyridin-2-yl)amino)cyclohexyl)methyl)amino)pyrimidine-5-carbonitrile] | 0.04 | 0.04 |
| O=C(c1cnc(NC[C@H]2CC[C@H](Nc3ccc4ccnc(Cl)c4n3)CC2)nc1)N1CCOCC1 [Compound C22, (2-((((1,4-trans)-4-((8-chloro-1,7-naphthyridin-2-yl)amino)cyclohexyl)methyl)amino)pyrimidin-5-yl)(morpholino)methanone] | 0.188 | 0.046 |
| O=C(c1cnc(NC[C@H]2CC[C@H](Nc3ccc4ccnc(Cl)c4n3)CC2)nc1)N1CCNCC1 [Compound C24, (2-((((1,4-trans)-4-((8-chloro-1,7-naphthyridin-2-yl)amino)cyclohexyl)methyl)amino)pyrimidin-5-yl)(piperazin-1-yl)methanone] | 0.296 | 0.112 |
| O=C(NC1COC1)c1cnc(NC[C@H]2CC[C@H](Nc3ccc4ccnc(Cl)c4n3)CC2)nc1 [Compound C25, 2-((((1,4-trans)-4-((8-chloro-1,7-naphthyridin-2-yl)amino)cyclohexyl)methyl)amino)-N-(oxetan-3-yl)pyrimidine-5-carboxamide] | 0.285 | 0.023 |
| CS(=O)(=O)N1CCN(Cc2cnc(NC[C@H]3CC[C@H](Nc4ccc5ccnc(Cl)c5n4)CC3)nc2)CC1 [Compound C26, 8-chloro-N-((1,4-trans)-4-(((5-((4-(methylsulfonyl)piperazin-1-yl)methyl)pyrimidin-2-yl)amino)methyl)cyclohexyl)-1,7-naphthyridin-2-amine] | 0.006 | 0.012 |
| OC1CN(Cc2cnc(NC[C@H]3CC[C@H](Nc4ccc5ccnc(Cl)c5n4)CC3)nc2)C1 [Compound C29, 1-((2-((((1,4-trans)-4-((8-chloro-1,7-naphthyridin-2-yl)amino)cyclohexyl)methyl)amino)pyrimidin-5-yl)methyl)azetidin-3-ol] | 0.022 | 0.02 |
| Clc1nccc2ccc(NC3CCC(CNc4ncc(COC5COC5)cn4)CC3)nc12 (stereo not drawn) [Compound C35, 8-chloro-N-((1,4-trans)-4-(((5-((oxetan-3-yloxy)methyl)pyrimidin-2-yl)amino)methyl)cyclohexyl)-1,7-naphthyridin-2-amine] | 0.024 | – |
